Results published in patent US10450615B2, “Methods and compositions for detecting gastrointestinal and other cancers” (Case Western Reserve University, priority 2003, dated 2019).

System: vimentin gene expression in colon cancer cell lines
Assay: RT-PCR of vimentin expression in colon cancer cell lines after 5-azacytidine treatment
Assay type: cell-based, human
Settings: FIG. 2, cell lines with vimentin DNA methylation, optimal tolerated doses ranging from 1 μg/ml to 3 μg/ml, reactivated in V400, V429, V503, RCA, V5, RKO, V432, V703, V457
Description: The cultures were grown and treated as described previously (Veigl, et al., 1998, Proc. Natl. Acad. Sci. USA, 95:8698-8702). The optimal tolerated doses were determined for each treated line, and two doses were used for some lines, ranging from 1 μg/ml to 3 μg/ml.
To establish that methylation was responsible for silencing vimentin gene expression, cell lines with vimentin DNA methylation were treated with 5-azacytidine (5-azaC), a demethylating agent.

Nc1ncn([C@@H]2O[C@H](CO)[C@@H](O)[C@H]2O)c(=O)n1 [5-azaC, 5-azacytidine]
colon cancer cell lines in which vimentin expression was reactivated (induced): 9 of 12
